Reference: patent US20260355199A1, “COMPOSITIONS AND METHODS FOR TREATING OR PREVENTING NONALCOHOLIC STEATOHEPATITIS (NASH), ANOREXIA, DEPRESSION, ENDOMETRIOSIS, AND OTHER DISEASES OR DISORDERS” (priority 2022, published 2026)
“Also recorded” adds a separate entry of the source.

How the values were obtained:
TET2 = TET2 expression in the ARC of mice; format: in vivo, mouse; conditions: 2.5 mg/kg i.p., two days
Method: To test whether Bobcat339 affects TET3 protein expression in AgRP neurons, Agrp-IRES-Cre::LSL-Cas9-GFP mice with GFP expression specifically in AgRP neurons were intraperitoneally injected with vehicle or Bobcat339 at 2.5 mg/kg, followed by isolation of ARCs under fed conditions (9:00-11:00) two days later. This dose was chosen based on the dose response studies. TET2 expression was widespread but was negligible in AgRP neurons.
Bobcat339 powder (Sigma-Aldrich, SML2611) was freshly dissolved in DMSO (vehicle) at a concentration of 50 mg/mL and filtered through a 0.22 micron. It was further diluted with 1×PBS to a final concentration of 0.5 mg/mL before injections. Mice were injected intraperitoneally with Bobcat339 at 1 mg/kg, 2.5 mg/kg, or 4 mg/kg.
The immunofluorescence for brain slices was conducted using previous methods (18). In brief, postfixed sections were cut into 40-μm-thick sections, followed by 5 times washing. […] The sections were coverslipped and scoped using a Keyence BZ-X700 fluorescence microscope. The fluorescence signals from GFP in AgRP neurons were detected without immunostaining.

Caspase-1 = Caspase-1 assay in human MDMs; format: cell-based; conditions: 10 μM, 48 h
Method: For TET3 expression restoration experiments, cells seeded in 24-well plates were infected with Ad-GFP or Ad-TET3 at 4000 gc/cell. Following 16 h of infection, vehicle or Bobcat339 were added at a final concentration of 10 μM. Protein and RNA were isolated 48 hours later and analyzed.
These were carried out using the Apoptosis/Caspase-1 assay kit (MyBioSource, MBS258046). Briefly, after wash with PBS, cells were incubated with 1×FAM-FLCA working solution in 300 μL growth media at 37 °C for 1 hour, followed by wash with 1× Cellular Wash Buffer three times. Hoechst 33342 was applied to counter-stain the cells for 15 min. Cells were then covered with mounting media and coverslips and scoped using a Keyence BZ-X700 fluorescence microscope.

Lin28 = Lin28 expression in mouse peritoneal macrophages; format: cell-based; conditions: 10 μM, 48 h
Method: For cultured mouse peritoneal macrophages, cells were primed with 30 ng/ml of TGF-β1 (R&D Systems, 7666-MB0-005) for 48 h (to increase TET3 expression) before Bobcat339 treatment. Bobcat339 (or DMSO) was added at a final concentration of 10 μM, followed by RNA and protein extraction at time points indicated in the figure legends.
Total RNAs were extracted from cells using PureLink RNA Mini Kit. 0.5-1 μg total RNA was reverse transcribed to cDNA in a reaction volume of 20 μL using PrimeScript RT Reagent Kit. Real-time quantitative PCR was performed in a 15 μL reaction volume containing 0.5-1 μL of cDNA using SsoAdvanced Universal SYBR Green Supermix in a Bio-Rad iCycler. Gene expression levels were normalized against RPLP0.

NPY and VGAT = NPY and VGAT expression in leptin-treated GT1-7 cells; format: cell-based, mouse; conditions: TET3-dependent manner
Method: Mouse GT1-7 hypothalamic neuronal cell line (Sigma-Aldrich, SCC116), human SH-SY5Y neuronal blastoma cell line (ATCC, CRL-2266), and embryonic mouse hypothalamus cell line N11 (mHypoE-N11) (Cedarlane, CLU107) were purchased and cultured according to the manufacturers' instructions. For siRNA transfection in a 24-well plate scale, cells were seeded at a density of 2×10^5 cells/well the day before transfection. To prepare siRNA transfection solution for each well of cells, 5 pmol of NT siRNA (non-targeting control siRNA, AM4636, Ambion), Tet3 siRNA (siRNA specifically targeting mouse Tet3, 4390815/s101483, Ambion), or TET3 siRNA (siRNA specifically targeting human TET3, 4392420/s47238, Ambion) (Cao et al., 2019, Oncogene, 38:5356-5366; Xu et al., 2020, Cell Rep., 30:1310-1318) were mixed with 25 μl of OPTI-MEM (Gibco, 31985-070) by gentle pipetting (Cao, T. et al., 2019, Oncogene, 38:5356-5366; Xu, Y. et al., 2020, Cell Reports, 30:1310-1318 e5). In parallel, 1.5 μl of Lipofectamine RNAiMAX (Invitrogen, 13778-150) was mixed with 25 μl of OPTI-MEM by gentle pipetting. Following 5 min of incubation at room temperature, the resulting 50 μl of transfection solution was added to one well of cells containing 1 ml culture media. […]

Row | Compound | TET2 expression (TET2) | apoptosis (Caspase-1) (Caspase-1) | Lin28 expression (Lin28) | NPY and VGAT expression (NPY and VGAT)
1 | Nc1nc(=O)n(-c2cccc(-c3ccccc3)c2)cc1Cl [Bobcat339, 4-Amino-1-[1,1′-biphenyl]-3-yl-5-chloro-2(1H)-pyrimidinone] | did not significantly affect TET2 expression | increased apoptosis; also recorded: a significant increase in pyroptotic cell death | decreased | 
2 | leptin: adipose hormone; mouse leptin L3772-1MG or human leptin L4146-1MG, Sigma Aldrich |  |  |  | negatively affected the expression of NPY and VGAT
